Data from article PMC11111408, “Concurrent inhibition of oncogenic and wild-type RAS-GTP for cancer therapy” (Nature, 2024).
pEC50, pKd: −log10 of the molar value. Several values for one entry are separate records, joined by “and”; a condition that tells them apart may be missing. Equal entries are not always repeated.

Assays:
[1] = test system: NCI-H358 cells (CYPA-high, CYPA-low); assay: Proliferation (CTG) of NCI-H358 cells with low or high CYPA; assay type: cell-based, human
Method: Data points show biological duplicates normalized to vehicle control. […] Data points show biological duplicates normalized to vehicle control from 1 of 2–26 independent experiments. Source Data
Alternatively, cells were seeded in round-bottom ultra-low attachment 96-well plates, centrifuged at 1,000 rpm for 10 min to pellet the cells, and incubated overnight or up to 72 h to allow for 3D spheroid formation. […] Cell viability was determined by CellTiter-Glo 2.0 reagent (2D CTG) (Promega, G9243) or 3D CellTiter-Glo reagent (3D CTG) (Promega, G9683) according to the manufacturer’s protocols. Luminescence was detected using a SpectraMax M5 Plate Reader (Molecular Devices) of Perkin Elmer Enspire. Luminescence signal was normalized to vehicle-treated wells (normalized signal (%) = (luminescence (treated)/mean luminescence (vehicle)) × 100%). […] Data were plotted as log [inhibitor (M)], and a four-parameter sigmoidal concentration response model was fitted to the data to calculate EC50. […] Pa16C MEK1 mutant cells were evaluated by live-cell counting using Calcein AM and a SpectraMax i3X multi-mode detection platform (Molecular Devices). Growth percentages were calculated by normalizing the treated cell counts to their respective untreated cell counts.

RAS = assay: Binding of the CYPA–RMC-7977 binary complex to RAS (Kd2), SPR; set-up: species or system human; conditions: all three wild-type RAS proteins
Source text: The basic nitrogen of the piperazine forms a cation–π interaction with W121. e, Oriented by the hydrogen bond to CYPA W121, RAS Y64 forms π-stacking interactions with the pyridine and indole groups. […] Data are mean ± s.d. of independent experiments (KRAS variants (green): wild-type (WT) KRAS, n = 4; KRAS(G12C), KRAS(G12D), KRAS(G12R), KRAS(G12V), KRAS(G13D), n = 6; NRAS variants (blue): NRAS(WT), NRAS(Q61L), n = 4; NRAS(Q61K), NRAS(Q61R), n = 6; HRAS variants (purple): HRAS(WT), n = 5; HRAS(G13R), n = 6; slope = 0.99, 95% confidence interval: 0.8–1.2, R^2 = 0.99; values also shown in Extended Data Tables 1–3).
The binding affinity of compound-bound CYPA for the mutant oncogenic RAS proteins (Kd2) mentioned was assessed by SPR on a Biacore 8 K instrument. […] The SPR sensorgrams were fit using either a steady state affinity model or a 1:1 binding (kinetic) model to assess the dissociation constant (Kd) for RAS binding.

KRAS^G12V = KRAS^G12V (Homo sapiens, UniProt P01116+P62937, G12V); assay: Biochemical RAS–RAF (BRAF RBD) disruption, TR-FRET; set-up: His6-TEV (N); made in house; host or cells: BL21(DE3) Escherichia coli
Source text: (§1) Time-resolved fluorescence resonance energy transfer (TR-FRET) was used as previously described to assess disruption of the interactions between wild-type RAS or the mutant oncogenic RAS proteins and the RAS-binding domain of BRAF, and to assess the induction of interactions between the RAS proteins and CYPA[12].

KRAS^G12C = KRAS^G12C (Homo sapiens, UniProt P01116+P62937, G12C); assay: Biochemical RAS–RAF (BRAF RBD) disruption, TR-FRET; set-up: His6-TEV (N); made in house; host or cells: BL21(DE3) Escherichia coli
Source text: as §1

SMILES: CCn1c(-c2cc(N3CCN(C4CC4)CC3)cnc2[C@H](C)OC)c2c3cc(ccc31)-c1csc(n1)C[C@H](NC(=O)[C@H]1[C@@H]3COC[C@@H]31)C(=O)N1CCC[C@H](N1)C(=O)OCC(C)(C)C2 [RMC-7977]
- sensitivity of CYPA-high versus CYPA-low cells, inhibition of cell proliferation ([1]; NCI-H358, doxycycline-inducible CYPA, 120 h): eightfold
- Proliferation, H358 CypA high (+ 0.1 µg/ml dox) ([1]; RMC-7977 0.0152 nM): 114.566 and 114.478 and 102.697 and 95.6358
- Proliferation, H358 CypA high (- dox) ([1]; RMC-7977 0.0152 nM): 114.881 and 112.875 and 101.544 and 96.9285
- Proliferation, H358 CypA low (+ 0.1 µg/ml dox) ([1]; RMC-7977 0.0152 nM): 109.975 and 111.873 and 103.465 and 96.8877
- Proliferation, H358 CypA low (- dox) ([1]; RMC-7977 0.0152 nM): 131.295 and 170.353 and 103.153 and 109.53
- Proliferation, H358 CypA high (+ 0.1 µg/ml dox) ([1]; RMC-7977 0.0457 nM): 102.073 and 87.0456
- Proliferation, H358 CypA high (- dox) ([1]; RMC-7977 0.0457 nM): 94.1146 and 92.3438
- Proliferation, H358 CypA low (+ 0.1 µg/ml dox) ([1]; RMC-7977 0.0457 nM): 104.393 and 103.775
- Proliferation, H358 CypA low (- dox) ([1]; RMC-7977 0.0457 nM): 101.295 and 103.944
- Proliferation, H358 CypA high (+ 0.1 µg/ml dox) ([1]; RMC-7977 0.41 nM): 40.4066 and 38.4296
- Proliferation, H358 CypA high (- dox) ([1]; RMC-7977 0.41 nM): 99.8914 and 99.4838
- Proliferation, H358 CypA low (+ 0.1 µg/ml dox) ([1]; RMC-7977 0.41 nM): 94.3293 and 90.7108
- Proliferation, H358 CypA low (- dox) ([1]; RMC-7977 0.41 nM): 110.992 and 108.667
- Proliferation, H358 CypA high (+ 0.1 µg/ml dox) ([1]; RMC-7977 3.70 nM): 4.175 and 3.964
- Proliferation, H358 CypA high (- dox) ([1]; RMC-7977 3.70 nM): 92.1373 and 96.6037
- Proliferation, H358 CypA low (+ 0.1 µg/ml dox) ([1]; RMC-7977 3.70 nM): 44.8323 and 42.163
- Proliferation, H358 CypA low (- dox) ([1]; RMC-7977 3.70 nM): 108.382 and 108.201
- Proliferation, H358 CypA high (+ 0.1 µg/ml dox) ([1]; RMC-7977 11.11 nM): 1.059 and 0.9033
- Proliferation, H358 CypA high (- dox) ([1]; RMC-7977 11.11 nM): 92.3418 and 100.036
- Proliferation, H358 CypA low (+ 0.1 µg/ml dox) ([1]; RMC-7977 11.11 nM): 22.8241 and 21.8177
- Proliferation, H358 CypA low (- dox) ([1]; RMC-7977 11.11 nM): 112.468 and 108.323
- Proliferation, H358 CypA high (+ 0.1 µg/ml dox) ([1]; RMC-7977 33.33 nM): 0.7359 and 0.8327
- Proliferation, H358 CypA high (- dox) ([1]; RMC-7977 33.33 nM): 92.8182 and 94.1066
- Proliferation, H358 CypA low (+ 0.1 µg/ml dox) ([1]; RMC-7977 33.33 nM): 11.066 and 10.8911
- Proliferation, H358 CypA low (- dox) ([1]; RMC-7977 33.33 nM): 104.142 and 111.18
- Proliferation, H358 CypA high (+ 0.1 µg/ml dox) ([1]; RMC-7977 100.00 nM): 0.6202 and 0.4579
- Proliferation, H358 CypA high (- dox) ([1]; RMC-7977 100.00 nM): 94.8777 and 89.8025
- Proliferation, H358 CypA low (+ 0.1 µg/ml dox) ([1]; RMC-7977 100.00 nM): 7.141 and 7.102
- Proliferation, H358 CypA low (- dox) ([1]; RMC-7977 100.00 nM): 104.79 and 108.679
- Proliferation, H358 CypA high (+ 0.1 µg/ml dox) ([1]; RMC-7977 300.00 nM): 0.5256 and 0.2817
- Proliferation, H358 CypA high (- dox) ([1]; RMC-7977 300.00 nM): 83.7998 and 85.0113
- Proliferation, H358 CypA low (+ 0.1 µg/ml dox) ([1]; RMC-7977 300.00 nM): 5.455 and 5.338
- Proliferation, H358 CypA low (- dox) ([1]; RMC-7977 300.00 nM): 79.1522 and 100.975
- pKd (RAS): ~7.00
- pEC50 (KRAS^G12V): 7.36
- pEC50 (KRAS^G12C): 7.50
